Source: PubChem BioAssay AID1919000 (Molecular Pharmacology Branch, DTP, NCI, 2023)

System: 653999-131-R-J2-PDC complex spheroids, growth % test/control
Test: Anticancer human tumor 653999-131-R-J2-PDC patient-derived lung adenocarcinoma cell line growth inhibition [AhR]
Conditions: for IC50: curve of first compound; for viability, T/C: stronger effect = lower value
Summary of the method: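 Complex tumor spheroids co-cultured with HUVEC and human MSC stroma; AhR antagonists tested in combination with standard-of-care and investigational agents. Top concentration at or near clinical Cmax (else 10 microM), half-log dilutions; growth expressed as percent test/control.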

[1] = second compound 0.1 µM, first compound 0.0316 µM
[2] = second compound 0.1 µM, first compound 0.1 µM
[3] = second compound 0.1 µM, first compound 0.316 µM
[4] = second compound 0.1 µM, first compound 1 µM
[5] = second compound 0.1 µM, first compound 3.16 µM
[6] = second compound 0.1 µM, first compound 10 µM
[7] = second compound 0.316 µM, first compound 0.0316 µM
[8] = second compound 0.316 µM, first compound 0.1 µM
[9] = second compound 0.316 µM, first compound 0.316 µM
[10] = second compound 0.316 µM, first compound 1 µM
[11] = second compound 0.316 µM, first compound 3.16 µM
[12] = second compound 0.316 µM, first compound 10 µM
[13] = second compound 1 µM, first compound 0.0316 µM
[14] = second compound 1 µM, first compound 0.1 µM
[15] = second compound 1 µM, first compound 0.316 µM
[16] = second compound 1 µM, first compound 1 µM
[17] = second compound 1 µM, first compound 3.16 µM
[18] = second compound 1 µM, first compound 10 µM
[19] = second compound 3.16 µM, first compound 0.0316 µM
[20] = second compound 3.16 µM, first compound 0.1 µM
[21] = second compound 3.16 µM, first compound 0.316 µM
[22] = second compound 3.16 µM, first compound 1 µM
[23] = second compound 3.16 µM, first compound 3.16 µM
[24] = second compound 3.16 µM, first compound 10 µM
[25] = second compound 10 µM, first compound 0.0316 µM
[26] = second compound 10 µM, first compound 0.1 µM
[27] = second compound 10 µM, first compound 0.316 µM
[28] = second compound 10 µM, first compound 1 µM
[29] = second compound 10 µM, first compound 3.16 µM
[30] = second compound 10 µM, first compound 10 µM
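Further: spheroids exposed to agents for seven days.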
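Wherever viability, T/C is given: 100% = DMSO vehicle control viability.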

CC(C)c1c(-c2ccccc2)nc2c(C#N)c[nH]n2c1=O + Cc1cncc(-c2nc(NCCc3c[nH]c4ccccc34)c3ncn(C(C)C)c3n2)c1
IC50 (second compound 0.1 µM): > 10000 nM | IC50 (second compound 0.316 µM): > 10000 nM | IC50 (second compound 1 µM): > 10000 nM | IC50 (second compound 3.16 µM): > 10000 nM | IC50 (second compound 10 µM): > 10000 nM | viability, T/C [1]: 112% | viability, T/C [2]: 99.8% | viability, T/C [3]: 102% | viability, T/C [4]: 95.8% | viability, T/C [5]: 93.9% | viability, T/C [6]: 102% | viability, T/C [7]: 115% | viability, T/C [8]: 114% | viability, T/C [9]: 120% | viability, T/C [10]: 104% | viability, T/C [11]: 97.7% | viability, T/C [12]: 99.2% | viability, T/C [13]: 128% | viability, T/C [14]: 118% | viability, T/C [15]: 122% | viability, T/C [16]: 136% | viability, T/C [17]: 125% | viability, T/C [18]: 116% | viability, T/C [19]: 128% | viability, T/C [20]: 117% | viability, T/C [21]: 121% | viability, T/C [22]: 115% | viability, T/C [23]: 129% | viability, T/C [24]: 120% | viability, T/C [25]: 63.2% | viability, T/C [26]: 58.8% | viability, T/C [27]: 62.6% | viability, T/C [28]: 63.7% | viability, T/C [29]: 62.2% | viability, T/C [30]: 63.7%

Nc1ncn(C2CC(O)C(CO)O2)c(=O)n1 (stereo not given) + CC(CO)NC(=O)c1cc(-c2ccc(Cl)cc2)nn(-c2cnn(C)c2)c1=O
IC50 (second compound 0.1 µM): > 1000 nM | IC50 (second compound 0.316 µM): > 1000 nM | IC50 (second compound 1 µM): > 1000 nM | IC50 (second compound 3.16 µM): > 1000 nM | IC50 (second compound 10 µM): > 1000 nM | viability, T/C (second compound 0.1 µM, first compound 0.00316 µM): 106% | viability, T/C (second compound 0.1 µM, first compound 0.01 µM): 110% | viability, T/C [1]: 103% | viability, T/C [2]: 89.4% | viability, T/C [3]: 84.5% | viability, T/C [4]: 79.9% | viability, T/C (second compound 0.316 µM, first compound 0.00316 µM): 106% | viability, T/C (second compound 0.316 µM, first compound 0.01 µM): 110% | viability, T/C [7]: 118% | viability, T/C [8]: 89.8% | viability, T/C [9]: 91.3% | viability, T/C [10]: 83% | viability, T/C (second compound 1 µM, first compound 0.00316 µM): 104% | viability, T/C (second compound 1 µM, first compound 0.01 µM): 108% | viability, T/C [13]: 122% | viability, T/C [14]: 109% | viability, T/C [15]: 88.4% | viability, T/C [16]: 86.4% | viability, T/C (second compound 3.16 µM, first compound 0.00316 µM): 106% | viability, T/C (second compound 3.16 µM, first compound 0.01 µM): 111% | viability, T/C [19]: 119% | viability, T/C [20]: 110% | viability, T/C [21]: 90.9% | viability, T/C [22]: 87.8% | viability, T/C (second compound 10 µM, first compound 0.00316 µM): 117% | viability, T/C (second compound 10 µM, first compound 0.01 µM): 116% | viability, T/C [25]: 109% | viability, T/C [26]: 126% | viability, T/C [27]: 99% | viability, T/C [28]: 109%

CCc1c2c(nc3ccc(O)cc13)-c1cc3c(c(=O)n1C2)COC(=O)[C@]3(O)CC + Cc1ccccc1N=Nc1ccc(NC(=O)c2ccnn2C)c(C)c1
IC50 (second compound 0.1 µM): 11.5 nM | IC50 (second compound 0.316 µM): 10.9 nM | IC50 (second compound 1 µM): 9.66 nM | IC50 (second compound 3.16 µM): 9.18 nM | IC50 (second compound 10 µM): 10.2 nM | viability, T/C (second compound 0.1 µM, first compound 0.000949 µM): 94.8% | viability, T/C (second compound 0.1 µM, first compound 0.003 µM): 76.6% | viability, T/C (second compound 0.1 µM, first compound 0.00949 µM): 51% | viability, T/C (second compound 0.1 µM, first compound 0.03 µM): 34.7% | viability, T/C (second compound 0.1 µM, first compound 0.0949 µM): 29.7% | viability, T/C (second compound 0.1 µM, first compound 0.3 µM): 17.4% | viability, T/C (second compound 0.316 µM, first compound 0.000949 µM): 88% | viability, T/C (second compound 0.316 µM, first compound 0.003 µM): 80.6% | viability, T/C (second compound 0.316 µM, first compound 0.00949 µM): 49.7% | viability, T/C (second compound 0.316 µM, first compound 0.03 µM): 32.9% | viability, T/C (second compound 0.316 µM, first compound 0.0949 µM): 30.1% | viability, T/C (second compound 0.316 µM, first compound 0.3 µM): 17.7% | viability, T/C (second compound 1 µM, first compound 0.000949 µM): 85.6% | viability, T/C (second compound 1 µM, first compound 0.003 µM): 72.6% | viability, T/C (second compound 1 µM, first compound 0.00949 µM): 46% | viability, T/C (second compound 1 µM, first compound 0.03 µM): 37.3% | viability, T/C (second compound 1 µM, first compound 0.0949 µM): 25.4% | viability, T/C (second compound 1 µM, first compound 0.3 µM): 19.2% | viability, T/C (second compound 3.16 µM, first compound 0.000949 µM): 81.3% | viability, T/C (second compound 3.16 µM, first compound 0.003 µM): 65% | viability, T/C (second compound 3.16 µM, first compound 0.00949 µM): 51.3% | viability, T/C (second compound 3.16 µM, first compound 0.03 µM): 32.5% | viability, T/C (second compound 3.16 µM, first compound 0.0949 µM): 25.2% | viability, T/C (second compound 3.16 µM, first compound 0.3 µM): 14.7% | viability, T/C (second compound 10 µM, first compound 0.000949 µM): 73.6% | viability, T/C (second compound 10 µM, first compound 0.003 µM): 62.2% | viability, T/C (second compound 10 µM, first compound 0.00949 µM): 49.7% | viability, T/C (second compound 10 µM, first compound 0.03 µM): 41% | viability, T/C (second compound 10 µM, first compound 0.0949 µM): 27.5% | viability, T/C (second compound 10 µM, first compound 0.3 µM): 18.4%

COc1cccc2c1C(=O)c1c(O)c3c(c(O)c1C2=O)CC(O)(C(=O)CO)CC3OC1CC(N)C(O)C(C)O1 (stereo not given) + Cc1ccccc1N=Nc1ccc(NC(=O)c2ccnn2C)c(C)c1
IC50 (second compound 0.1 µM): < 31.6 nM | IC50 (second compound 0.316 µM): < 31.6 nM | IC50 (second compound 1 µM): < 31.6 nM | IC50 (second compound 3.16 µM): 95.9 nM | IC50 (second compound 10 µM): 129 nM | viability, T/C [1]: 50.3% | viability, T/C [2]: 44.6% | viability, T/C [3]: 25.8% | viability, T/C [4]: 9.24% | viability, T/C [5]: 5.33% | viability, T/C [6]: 16.6% | viability, T/C [7]: 50.5% | viability, T/C [8]: 40.8% | viability, T/C [9]: 29.3% | viability, T/C [10]: 9.21% | viability, T/C [11]: 4.48% | viability, T/C [12]: 17.2% | viability, T/C [13]: 48.8% | viability, T/C [14]: 44% | viability, T/C [15]: 28.6% | viability, T/C [16]: 10.4% | viability, T/C [17]: 8.05% | viability, T/C [18]: 19.6% | viability, T/C [19]: 55.6% | viability, T/C [20]: 47% | viability, T/C [21]: 32.6% | viability, T/C [22]: 12.3% | viability, T/C [23]: 11.6% | viability, T/C [24]: 19.2% | viability, T/C [25]: 60.5% | viability, T/C [26]: 51% | viability, T/C [27]: 37.2% | viability, T/C [28]: 16.3% | viability, T/C [29]: 8.54% | viability, T/C [30]: 22.5%
